Experimental data published in patent publication US4956461A, “Desamino-aminopterin and -methotrexate” (priority 1989, dated 1990).
Like-named read-outs stand apart in the source and are kept apart here.

Experiments:
WI-L2 cells = test: Growth inhibition of cultured human WI-L2 tumor cells; assay type: cell-based
[1] = biological target: T1, dihydrofolate reductase (DHFR) (Homo sapiens, UniProt P00374); test: Inhibition of purified dihydrofolate reductase (DHFR) from human leukemic lymphoblasts (WI-L2 cells); assay type: biochemical
T1 construct: endogenous in cells; host or cells: MTX-resistant WI-L2 human leukemic lymphoblasts
T1 sequence (P00374 1-187): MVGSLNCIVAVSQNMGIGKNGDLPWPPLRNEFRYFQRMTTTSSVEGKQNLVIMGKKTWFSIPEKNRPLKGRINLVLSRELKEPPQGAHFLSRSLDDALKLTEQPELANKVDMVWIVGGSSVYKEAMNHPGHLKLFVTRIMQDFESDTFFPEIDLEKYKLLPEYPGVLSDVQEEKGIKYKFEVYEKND
Excerpt: DHFR was isolated from MTXresistant WIL2 cells and purified by affinity

[2] = Stability in solution (base, pH 7.4 buffer, NH4HCO3 eluates); assay type: physicochemical; conditions: for stability of 3% NH4HCO3 eluates: overnight in the refrigerator; for time stable in pH 7.4 phosphate buffer / half-life: room temperature, pH 7.4 phosphate buffer; for half-life: read-out: t1/2 (UV changes suggestive of pyrimidine ring cleavage) (converted)
Excerpt: Critically important to the successful purification of the end products of Examples 3 and 4 on diethylamino-ethylcellulose was that the fractions were freeze dried as soon as possible after collection.

L1210 cells [3] = test: Growth inhibition of cultured murine L1210 tumor cells; assay type: cell-based
[4] = test system: E. coli dihydrofolate reductase (DHFR), aspartic acid replaced with serine; conditions: cited from earlier work
[5] = test system: DHFR, threonine residue replaced by valine; conditions: threonine to valine mutant; cited from earlier work
carboxypeptidase G1 = test: Glutamate hydrolysis by carboxypeptidase G1 (HPLC); assay type: biochemical; conditions: for disappearance of starting material (glutamate hydrolysis): room temperature, 1M NaOAc, ZnCl2, in less than 15 min
L1210 cells [6] = test: Reversal test: effect of thymidine and hypoxanthine on growth of L1210 cells in presence of compound; assay type: cell-based, murine; conditions: Mus musculus
Experimental: Thymidine (dThd) and hypoxanthine (Hx) were added at concentrations of 10 μM and 100 μM, respectively.

[7] = WIL2, read-out: Cells IC50, WI-L2
[8] = Mus musculus, L1210, read-out: Cells IC50, L1210
[9] = Mus musculus, L1210, read-out: IC50, growth of cultured tumor cells
[10] = WIL2, read-out: IC50, growth of cultured tumor cells
[11] = + 10 μM thymidine and 100 μM hypoxanthine, read-out: IC50, + dThd and Hx
[12] = + 10 μM thymidine, read-out: IC50, + dThd
[13] = + 100 μM hypoxanthine, read-out: IC50, + Hx
[14] = read-out: IC50, standard medium

With Nc1nc(N)c2nc(CNc3ccc(C(=O)N[C@@H](CCC(=O)O)C(=O)O)cc3)cnc2n1 [AMT, aminopterin] as the compound, how does the IC50 (WI-L2 cells; [7]) read?
The IC50 was 7.1 nM.

Which IC50 [1] does the source give for CN(Cc1cnc2ncnc(N)c2n1)c1ccc(C(=O)N[C@@H](CCC(=O)O)C(=O)O)cc1 [Example 3] here?
Its IC50 is 5800 nM.

And the “stability of 3% NH4HCO3 eluates” value [2]?
Its value is “extensive decomposition occurred”.

Which IC50 (L1210 cells [3]; Mus musculus, L1210; read-out: Cells IC50, L1210) does the source give for CN(Cc1cnc2nc(N)nc(N)c2n1)c1ccc(C(=O)N[C@@H](CCC(=O)O)C(=O)O)cc1 [MTX, methotrexate] here?
Its IC50 is 9 nM.

And the IC50 (L1210 cells [3]; Mus musculus; one figure stated for WI-L2 and L1210 together; here L1210; read-out: IC50, growth of cultured tumor cells)?
The IC50 was 10 nM.

And the IC50 (WI-L2 cells; WIL2, one figure stated for WI-L2 and L1210 together, here WI-L2, read-out: IC50, growth of cultured tumor cells)?
The IC50 was 10 nM.

And the IC50 (WI-L2 cells; [7])?
Its IC50 is 13 nM.

What about the “increase in the KD for MTX binding” value ([4]; aspartic acid to serine mutant of E. coli DHFR, equilibrium dialysis) of the same compound?
The value was 3000 fold.

And the “decrease in the binding energy” value ([4]; aspartic acid to serine mutant)?
Its value is 4.4 kcal/mol.

And the “decrease in the KD for MTX” value [5]?
The value was 25 fold.

With CN(Cc1cnc2nc(N)nc(N)c2n1)c1ccc(C(=O)N[C@H](CCC(=O)O)C(=O)O)cc1 [D MTX, reference compound] as the compound, how does the “cleavage by carboxypeptidase G1” value (carboxypeptidase G1; identical conditions) read?
Its value is “resistant”.

With Nc1ncnc2ncc(CNc3ccc(C(=O)N[C@@H](CCC(=O)O)C(=O)O)cc3)nc12 [Example 1, 2-desamino-aminopterin] as the compound, how does the IC50 (L1210 cells [3]; [8]) read?
Its IC50 is 82 nM.

And the IC50 (L1210 cells [3]; [9])?
Its IC50 is 30 to 80 nM.

What about the IC50 (WI-L2 cells; [7]) of the same compound?
Its IC50 is 81 nM.

And the IC50 (WI-L2 cells; [10])?
The IC50 was 30 to 80 nM.

What about the IC50 (L1210 cells [6]; [11]) of the same compound?
The IC50 was over 100000 nM.

What about the IC50 (L1210 cells [6]; [12]) of the same compound?
Its IC50 is 160 nM.

And the IC50 (L1210 cells [6]; [13])?
Its IC50 is 260 nM.

What about the IC50 (L1210 cells [6]; [14]) of the same compound?
The IC50 was 82 nM.

What about the “stability in 0.1 N NaOH by HPLC” value [2] of the same compound?
Its value is “rapid appearance of new peaks indicating a chemical reaction”.

And the “time stable in pH 7.4 phosphate buffer” value [2]?
Its value is “at least 24 h”.

What about the half-life [2] of the same compound?
Its half-life is about 72 h.

And the “disappearance of starting material (glutamate hydrolysis)” value (carboxypeptidase G1)?
Its value is over 95%.

For Cc1nc(N)c2nc(CNc3ccc(C(=O)N[C@@H](CCC(=O)O)C(=O)O)cc3)cnc2n1 [Example 2, 2-desamino-2-methyl-aminopterin], which IC50 [1] is on record?
Its IC50 is over 50000 nM.

And the IC50 (L1210 cells [3]; [8])?
Its IC50 is 42 nM.

What about the IC50 (L1210 cells [3]; [9]) of the same compound?
The IC50 was 30 to 80 nM.

What about the IC50 (WI-L2 cells; [7]) of the same compound?
Its IC50 is 28 nM.

What about the IC50 (WI-L2 cells; [10]) of the same compound?
Its IC50 is 30 to 80 nM.

And the IC50 (L1210 cells [6]; [11])?
Its IC50 is over 100000 nM.

What about the IC50 (L1210 cells [6]; [12]) of the same compound?
Its IC50 is 130 nM.

And the IC50 (L1210 cells [6]; [13])?
The IC50 was 160 nM.

What about the IC50 (L1210 cells [6]; [14]) of the same compound?
The IC50 was 42 nM.

What about the “stability in 0.1 N NaOH by HPLC” value [2] of the same compound?
Its value is “rapid appearance of new peaks indicating a chemical reaction”.

And the “time stable in pH 7.4 phosphate buffer” value [2]?
Its value is “at least 24 h”.

And the half-life [2]?
Its half-life is about 72 h.

What about the “disappearance of starting material (glutamate hydrolysis)” value (carboxypeptidase G1) of the same compound?
Its value is over 95%.

Which IC50 ([1]; purified DHFR from MTX-resistant WI-L2 cells, read-out: DHFR IC50) does the source give for Cc1nc(N)c2nc(CN(C)c3ccc(C(=O)N[C@@H](CCC(=O)O)C(=O)O)cc3)cnc2n1 [Example 4] here?
Its IC50 is over 20000 nM.

What about the “stability of 3% NH4HCO3 eluates” value [2] of the same compound?
The value was “extensive decomposition occurred”.
